The source of these data is patent publication US8426447B2, “Spiro-tricyclic ring compounds as beta-secretase modulators and methods of use” (Amgen Inc., priority 2008, dated 2013).

For test [1], the target named is T1, BACE1 (Homo sapiens, UniProt P56817). Briefly: In Vitro BACE Cell-based Assay (HEK cell assay): Aβ40 in conditioned medium of cells stably expressing Amyloid Precursor Protein, sandwich ELISA. As to conditions: read-out: HEK cell assay. Put shortly:
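Read-out is time-resolved fluorescence of Aβ40 in supernatant, captured by pAb40 and detected with biotinylated 6E10 plus Streptavidin-Europium. Cells stably expressing APP received compounds for 24 h over 10 concentrations starting at 100 μM or 10 μM, final DMSO 0.1%.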
Background: In an ELISA, binding on a coated surface is turned into a signal by an enzyme label.

Test [2] deals with T1, BACE1. Briefly: In Vitro Enzymatic BACE FRET (Fluorescence Resonance Energy Transfer) Assay. It counts as biochemical. As to conditions: read-out: BACE1 FRET assay. Put shortly:
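Cleavage of a 50 nM internally quenched peptide substrate is followed by fluorescence after a one-hour reaction in acidic acetate buffer, pH 4.2, terminated by Tris.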

The mark [3] stands for this setting: HEK cell-based assay, Aβ40 in conditioned medium, IC50 class symbols.
Setting [4] is: in vitro BACE FRET enzyme assay, IC50 class symbols.

T1 sequence (P56817 46-501, species assumed): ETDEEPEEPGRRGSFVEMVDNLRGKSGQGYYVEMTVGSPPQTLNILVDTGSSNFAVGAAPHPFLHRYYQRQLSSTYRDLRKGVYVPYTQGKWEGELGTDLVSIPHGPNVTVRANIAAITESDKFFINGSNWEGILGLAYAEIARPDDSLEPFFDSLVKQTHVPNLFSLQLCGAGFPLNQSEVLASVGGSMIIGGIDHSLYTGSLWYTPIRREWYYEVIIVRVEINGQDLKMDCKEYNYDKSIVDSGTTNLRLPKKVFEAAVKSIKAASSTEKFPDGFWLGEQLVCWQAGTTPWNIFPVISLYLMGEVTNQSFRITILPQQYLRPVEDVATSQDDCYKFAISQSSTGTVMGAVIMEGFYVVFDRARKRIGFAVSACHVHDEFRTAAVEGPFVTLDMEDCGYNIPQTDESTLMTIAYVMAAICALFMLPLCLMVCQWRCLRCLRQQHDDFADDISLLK

Turning to `NC1=N[C@@]2(CO1)c1cc(-c3cccnc3)ccc1Oc1cnc(C3CCCCC3)cc12` [compound 791], the results for the IC50 on BACE1 [1] and at BACE1 [2] were 0.1 to 1 µM and below 0.1 µM, respectively.
Turning to `NC1=N[C@@]2(CO1)c1cc(-c3cccnc3)ccc1Oc1cnc(N3CCC(=O)CC3)cc12` [compound 442], the IC50 at BACE1 [1] (HEK cells) and at BACE1 [2] was below 0.1 µM in each case.
On to `NC1=N[C@@]2(CO1)c1cc(-c3cccnc3)ccc1Oc1c(F)cccc12` [compound 592], for which the IC50 on BACE1 [1] (Table IV, class symbols) is 0.1 to 1 µM; at BACE1 [2] (Table IV, class symbols) it was below 0.1 µM.
`NC1=N[C@]2(CO1)c1cc(C(=O)N3CCCC3)ccc1Oc1ccc(-c3cccnc3)cc12` [compound 945]: the IC50 on BACE1 [1] and at BACE1 [2] was 0.1 to 1 µM in each case.
Take `NC1=N[C@]2(CO1)c1cc(C3=CCNCC3)ccc1Oc1ccc(-c3cncnc3)cc12` [compound 964]: the IC50 at BACE1 [1] and on BACE1 [2] was below 0.1 µM in each case.
For the compound `Cc1cncc(-c2ccc3c(c2)[C@@]2(COC(N)=N2)c2cc(OCC(C)(C)O)ccc2O3)c1` [compound 223], the IC50 was below 0.1 µM on BACE1 [1] (Table III, IC50's in uM ranges) and below 0.1 µM at BACE1 [2] (Table III, IC50's in uM ranges).
Regarding `C[C@@H]1OC(N)=N[C@@]12c1cc(OCC(C)(C)C)ccc1Oc1ccc(-c3cncnc3)cc12` [126b], the IC50 on BACE1 [1] (Table III, IC50's in uM ranges) is 0.1 to 1 µM; at BACE1 [2] (Table III, IC50's in uM ranges) it was below 0.1 µM.
As for `CC(C)(C)COc1ccc2c(c1)[C@@]1(COC(N)=N1)c1cc(-c3ccc(OCC4CC4)nc3)cnc1O2` [compound 741], the IC50 on BACE1 [1] and on BACE1 [2] was below 0.1 µM throughout.
Consider `COc1ccc2c(c1)[C@]1(COC(N)=N1)c1cc(OC)cnc1O2` [compound 541], for which the IC50 was 1 to 5 µM on BACE1 [1] (Table IV, class symbols) and above 5 µM on BACE1 [2] (Table IV, class symbols).
`CC1(C)CN(c2cc(F)c3c(c2)[C@]2(COC(N)=N2)c2cc(-c4cncnc4)ccc2O3)CCO1` [compound 505]: the IC50 on BACE1 [1] (HEK cells) and at BACE1 [2] was below 0.1 µM each time.
As to `CC(C)(C)COc1ccc2c(c1)[C@@]1(CSC(N)=N1)c1cc(-c3cncnc3)ccc1O2` [compound 721], the IC50 at BACE1 [1] was 1 to 5 µM; at BACE1 [2] it was below 0.1 µM.
Consider `COCC(=O)Nc1ccc2c(c1)[C@@]1(COC(N)=N1)c1cc(OCC(C)(C)C)ccc1O2` [compound 375], for which the figures for the IC50 on BACE1 [1] (setting [3]) and at BACE1 [2] (setting [4]) were 0.1 to 1 µM and below 0.1 µM, respectively.
The like results for `N#Cc1ccc(-c2cc3c(cn2)Oc2ccc(-c4cccnc4F)cc2[C@@]32COC(N)=N2)cc1` [compound 372] were, in that order, below 0.1 µM and below 0.1 µM.
In the case of `COC(C)(C)C#Cc1cc(F)c2c(c1)[C@@]1(COC(N)=N1)c1cc(-c3cncnc3)ccc1O2` [compound 674], the IC50 on BACE1 [1] is 1 to 5 µM; on BACE1 [2] it was 0.1 to 1 µM.
In the case of `NC1=N[C@@]2(CO1)c1cc(Br)ccc1Oc1ccc(C#CC3(O)CCC3)cc12` [compound 957], the IC50 was above 5 µM on BACE1 [1] and 1 to 5 µM on BACE1 [2].
As to `CC(C)(C)CCOc1nccc2c1[C@]1(COC(N)=N1)c1cc(-c3cncnc3)ccc1O2` [compound 984], the IC50 on BACE1 [1] and on BACE1 [2] was 0.1 to 1 µM each time.
On to `COc1ccc2c(c1)[C@]1(COC(N)=N1)c1cc(C#CC(C)(C)C)cnc1O2` [compound 904], for which the IC50 at BACE1 [1] (Table IV, class symbols) was 0.1 to 1 µM; on BACE1 [2] (Table IV, class symbols) it was above 5 µM.
With `Cc1cccc(-c2ccc3c(c2)[C@]2(COC(N)=N2)c2cc(-c4cncnc4)ccc2O3)c1` [compound 998], the IC50 on BACE1 [1] and at BACE1 [2] was below 0.1 µM throughout.
Turning to `NC1=N[C@@]2(CO1)c1cc(-c3ccccc3)ccc1Oc1ncc(N3CCOCC3)cc12` [compound 626], the IC50 at BACE1 [1] (Table IV, class symbols) was below 0.1 µM; at BACE1 [2] (Table IV, class symbols), below 0.1 µM.
For the compound `N#Cc1cccc(-c2ccc3c(c2)[C@]2(COC(N)=N2)c2cc(-c4cccnc4)ccc2O3)c1` [compound 961], the IC50 at BACE1 [1] and on BACE1 [2] was below 0.1 µM each time.
For the compound `CC1CCN(c2cc3c(cn2)Oc2ccc(-c4cccnc4)cc2[C@@]32COC(N)=N2)CC1` [compound 441], the IC50 at BACE1 [1] (HEK cells) and at BACE1 [2] was below 0.1 µM each time.
For `NC1=N[C@@]2(CO1)c1cc(-c3cncnc3)ccc1Oc1cc(OCC(F)(F)F)c(F)cc12` [compound 987], the IC50 on BACE1 [1] and at BACE1 [2] was above 5 µM in each case.
